The values that follow come from patent publication US10858388B2, “Selective progesterone receptor modulator (SPRM) regimen” (BAYER PHARMA AKTIENGESELLSCHAFT, priority 2015, dated 2020).

Entries after “also recorded” stand apart in the source; their conditions may differ.

Format in all cases: in vivo, human
Data set [1] deals with subjects with uterine fibroids. Description: Study 15788: endometrial thickness by transvaginal ultrasound, 3-month treatment (Example 3). The note with it: 12 weeks. As for the experimental part:
(§1) A randomized, parallel-group, double-blind, placebo-controlled, multi-center study to assess efficacy of different doses of Compound 1 where primary efficacy variable is Endometrium thickness and secondary efficacy variable is PAEC in subjects with uterine fibroids over a 3-month treatment [1×12 weeks/84 days]
Doses: 0.5 mg, 1 mg, 2 mg, or 4 mg once daily
(§2) Route of administration: Oral
Duration of treatment: 1×12 weeks (84 days)
Women, 18 to 50 years old, with uterine fibroids documented by transvaginal or abdominal ultrasound at screening with at least 1 uterine fibroid with largest diameter 3 cm and heavy menstrual bleeding (HMB) 80 ml were eligible for enrolment in the study.
Eligible subjects were equally randomized to one of the treatment groups (Placebo, 0.5 mg, 1 mg, 2 mg, or 4 mg Compound 1). Treatment started during the first week of the menstrual cycle following randomization. The treatment period consisted of 12 weeks (84 days) of daily tablet intake.
(§3) Efficacy Measurement: • endometrial biopsies • cervical smear • transvaginal ultrasound TVU (endometrial thickness, ovaries)
Subjects that were detected with endometrial thickness (double layer)>18 mm (or suspicious bleeding pattern, e.g. continuous spotting, unusually heavy bleeding), were immediately evaluated by an additional endometrial biopsy.

Data set [2] deals with subjects with uterine fibroids. Briefly: Study 15788: endometrial biopsies, PAEC and histology (Example 3). The protocol:
as §1
The first endometrial biopsy was performed on Day 9+/−2 of the first or second menstrual cycle after screening visit 1, i.e. at screening visit 2.
Biopsy was determined by randomization. This means that subjects were randomized to the time point of the second biopsy and were informed about the group they are in, directly after randomization followed by stratification by dose group.
If a subject was randomized to this time point, the biopsy was scheduled on Day 9+/−2 of the first menstrual cycle after the treatment visit 2 (corresponding to Visit 5), i.e. during the last 4 weeks of study drug treatment. If no menstrual bleeding occurs between the treatment visit 2 (Visit 5) and the end of treatment (EoT) visit (Visit 6), the biopsy was performed at the end of treatment (EoT) visit (Visit 6).
If a subject was randomized to this time point, the biopsy was scheduled on Day 9+/−2 of the first menstrual cycle after the end of treatment. If no menstrual bleeding occurs until 12 weeks after end of treatment, i.e. until the follow-up visit 2 (Visit 8), a biopsy was performed at the follow-up visit 2 (Visit 8) and induction of bleeding was considered.
If a subject was randomized to this time point, the biopsy was scheduled on Day 9+/−2 of the second menstrual cycle after the end of treatment. If no menstrual bleeding occurs until 12 weeks after end of treatment, i.e. until the follow-up visit 2 (Visit 8), a biopsy was performed at the follow-up visit 2 (Visit 8) and induction of bleeding was considered.
If a subject is randomized to this time point, the biopsy was scheduled on Day 9+1-2 of the third menstrual cycle after end of treatment. If no menstrual bleeding occurred until 12 weeks after end of treatment, i.e. until the follow-up visit 2 (Visit 8), a biopsy was performed at the follow-up visit 2 (Visit 8) and induction of bleeding was considered.
The third endometrial biopsy was performed at the follow-up visit 3 (Visit 9), which was scheduled on Day 9+/−2 of the menstrual cycle which started following Week 20 after the end of treatment. If no bleeding episode occurred, Visit 9 was performed 24 weeks after end of treatment, i.e. Visit 9 took place 21 to 24 weeks after the end of treatment in all subjects. If the second endometrial biopsy was performed less than 6 weeks before the scheduled date of the third endometrial biopsy and pathological findings were absent, the third endometrial biopsy was not required.
After the end of treatment, subjects were followed up for 21 to 24 weeks (Follow-up period). […] In case of findings that require further follow-up, additional visits were scheduled according to normal standard practice.
as §3
FIG. 2: PAEC in biopsy after 1st/2nd/3rd bleeding episodes (menses). Pharmacodynamic effecs on the endometrium. Percentage of subjects with PAEC.

The test system of data set [3] is subjects with uterine fibroids. Description: Study 17541: amenorrhea, 3-month vs 6-month treatment (Example 5). The protocol: A randomized, parallel-group, double-blind, placebo-controlled, multi-center study to assess efficacy of a dose of 2 mg of Compound 1 where primary efficacy variable is Amenorrhea, in subjects with uterine fibroids over 3 months [1×12 weeks] and 6 months [2×12 weeks without treatment break].
Test drug: Compound 1 Doses: 2 mg, once daily
as §2
Duration of treatment: 2×12 weeks without treatment break
Women, 18 to 50 years old, with uterine fibroids documented by transvaginal or abdominal ultrasound at screening with at least 1 uterine fibroid with largest diameter 3 cm and Heavy Menstrual Bleeding (HMB) 80∃ ml were eligible for enrolment in the study.
Eligible subjects will be equally randomized to one of the treatment groups (Placebo, 2 mg of Compound 1). Treatment will start during the first week of the menstrual cycle following randomization. The treatment period will consist of 1×12 and 2×12 weeks (84 days) of daily tablet intake. • Treatment A1: 2 mg of Compound 1 (12 weeks), 2 mg of Compound 1 (12 weeks) without treatment break • Treatment A2: Placebo (12 weeks), 2 mg of Compound 1 (12 weeks).
Efficacy Measurement: • daily documentation of bleeding intensity (electronic diary or eDiary) • Menstrual Pictogram MP (electronic diary or eDiary).
Onset of amenorrhea is defined by the first day for which the menstrual blood loss (assessed by MP) for all subsequent 28-day periods up to the end of the treatment period is less than 2 ml.
The primary endpoint amenorrhea (no/yes) was based on the bleeding intensity recorded in the eDiary/Daily bleeding diary.

Where [4] appears, read: 6 months (2x12 weeks without treatment break).

On to `C[C@]12C[C@H](c3ccc(S(C)(=O)=O)cc3)C3=C4CCC(=O)C=C4CC[C@H]3[C@@H]1CC[C@@]2(O)C(F)(F)C(F)(F)F` [Compound 1, (11β,17β)-17-Hydroxy-11-[4-(methylsulphonyl)phenyl]-17-(pentafluoroethyl)estra-4,9-dien-3-one], for which the “Endometrial thickness at EoT, max” value in data set [1] (0.5 mg once daily oral) was “(27.0, 5.2) mm”; in data set [1] (1 mg once daily oral), “(41.0, 7.0) mm”; in data set [1] (2 mg once daily oral), “(27.0, 4.7) mm”; in data set [1] (4 mg once daily oral), “(20.0, 4.9) mm”. The “Subjects with maximum endometrium thickness >18 mm, (%)” value in data set [1] (0.5 mg once daily oral) is “(3.4) %”; in data set [1] (1 mg once daily oral), “(12.5) %”; in data set [1] (2 mg once daily oral), “(3.5) %”. The “Median endometrial thickness at EoT” value in data set [1] (0.5 mg once daily oral, n = 57) is 9.0 mm; in data set [1] (1 mg once daily oral, n = 56), 10.0 mm; in data set [1] (2 mg once daily oral, n = 58) it was 7.5 mm; in data set [1] (4 mg once daily oral, n = 56), 8.5 mm. Besides, the “Trend in endometrial thickness under treatment” value in data set [1] (0.5-4 mg once daily) was “no clear trend for an increase”. The “Treatment-emergent critical endometrial findings” value in data set [2] (0.5-4 mg once daily, 12 weeks) is “No treatment-emergent critical endometrial findings occurred”. Besides, in data set [2] (break / follow-up after end of treatment), the “Resolution of PAECs after bleeding episodes” value was “already resolved after one bleeding; also recorded: resolve PAECs already after one bleeding”. Also, the “Endometrial histology in biopsies at the end of follow-up” value in data set [2] (end of follow-up, all available samples) is reported as “benign endometrial histology changes (PAEC)”. The Cases of hyperplasia entry in data set [2] (endometrial biopsies) is listed as “no cases of hyperplasia”. Further, the PAECs during follow-up result in data set [2] (follow-up after 12 weeks treatment, FIG. 2) is on record as “returned to background level”. Also, the “Amenorrhea until 6 months of treatment” value in data set [3] (2 mg once daily, 2x12 weeks without treatment break, preliminary data) was “amenorrhea observed after 1×12 weeks is maintained”. In addition, in data set [3] (setting [4]), the “Rate of subjects with endometrial thickness above 18 mm” value is given as “not found to be increased”. For the same molecule, in data set [3] (setting [4]), the “Rates of adverse events with regard to ovarian cysts or bleeding” value is on record as “do not show increased rates of adverse events”.
